Each block holds one compound with its values, some of them ahead of it. Active and inactive are the calls of the source.
What was measured:
[1] = biological target: Glyceraldehyde-3-phosphate dehydrogenase (Homo sapiens, UniProt P04406)
[2] = biological target: Tyrosine-protein phosphatase non-receptor type 12 (Homo sapiens, UniProt Q05209); assay: SAR Selectivity Analysis of small molecule inhibitors of PEST using pCAP in a fluorescence assay. [Related pubchem assays (depositor defined):AID1779, AID1784, AID2135]; assay type: functional
Tyrosine-protein phosphatase non-receptor type 12, sequence (Q05209 whole entry): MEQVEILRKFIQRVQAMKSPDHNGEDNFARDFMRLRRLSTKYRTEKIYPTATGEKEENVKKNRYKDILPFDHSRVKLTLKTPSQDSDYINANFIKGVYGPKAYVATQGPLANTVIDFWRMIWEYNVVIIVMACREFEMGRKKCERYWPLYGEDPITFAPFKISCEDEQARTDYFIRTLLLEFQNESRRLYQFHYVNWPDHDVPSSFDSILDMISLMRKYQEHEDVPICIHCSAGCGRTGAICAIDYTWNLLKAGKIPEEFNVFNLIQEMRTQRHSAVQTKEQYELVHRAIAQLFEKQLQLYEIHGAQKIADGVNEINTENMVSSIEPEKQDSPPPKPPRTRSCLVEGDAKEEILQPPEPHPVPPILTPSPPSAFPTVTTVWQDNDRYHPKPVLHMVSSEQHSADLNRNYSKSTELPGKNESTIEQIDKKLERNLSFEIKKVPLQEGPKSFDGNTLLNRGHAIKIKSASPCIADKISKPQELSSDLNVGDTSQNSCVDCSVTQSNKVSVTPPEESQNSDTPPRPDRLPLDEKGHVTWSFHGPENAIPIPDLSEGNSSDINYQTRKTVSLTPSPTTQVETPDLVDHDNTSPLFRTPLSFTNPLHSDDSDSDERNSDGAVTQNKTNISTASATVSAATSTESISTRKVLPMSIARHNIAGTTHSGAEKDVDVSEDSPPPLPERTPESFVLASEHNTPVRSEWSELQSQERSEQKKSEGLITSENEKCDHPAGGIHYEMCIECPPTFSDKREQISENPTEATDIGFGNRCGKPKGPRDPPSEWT

[3] = biological target: T1, Tyrosine-protein phosphatase non-receptor type 22 (Homo sapiens, UniProt Q9Y2R2); assay: SAR LYP1 Fluorescent Assay using OMFP substrate for In Vitro dose response studies - Set 3. [Related pubchem assays (depositor defined):AID1779, AID1784, AID2140, AID2686]; assay type: functional
T1 sequence (Q9Y2R2 whole entry): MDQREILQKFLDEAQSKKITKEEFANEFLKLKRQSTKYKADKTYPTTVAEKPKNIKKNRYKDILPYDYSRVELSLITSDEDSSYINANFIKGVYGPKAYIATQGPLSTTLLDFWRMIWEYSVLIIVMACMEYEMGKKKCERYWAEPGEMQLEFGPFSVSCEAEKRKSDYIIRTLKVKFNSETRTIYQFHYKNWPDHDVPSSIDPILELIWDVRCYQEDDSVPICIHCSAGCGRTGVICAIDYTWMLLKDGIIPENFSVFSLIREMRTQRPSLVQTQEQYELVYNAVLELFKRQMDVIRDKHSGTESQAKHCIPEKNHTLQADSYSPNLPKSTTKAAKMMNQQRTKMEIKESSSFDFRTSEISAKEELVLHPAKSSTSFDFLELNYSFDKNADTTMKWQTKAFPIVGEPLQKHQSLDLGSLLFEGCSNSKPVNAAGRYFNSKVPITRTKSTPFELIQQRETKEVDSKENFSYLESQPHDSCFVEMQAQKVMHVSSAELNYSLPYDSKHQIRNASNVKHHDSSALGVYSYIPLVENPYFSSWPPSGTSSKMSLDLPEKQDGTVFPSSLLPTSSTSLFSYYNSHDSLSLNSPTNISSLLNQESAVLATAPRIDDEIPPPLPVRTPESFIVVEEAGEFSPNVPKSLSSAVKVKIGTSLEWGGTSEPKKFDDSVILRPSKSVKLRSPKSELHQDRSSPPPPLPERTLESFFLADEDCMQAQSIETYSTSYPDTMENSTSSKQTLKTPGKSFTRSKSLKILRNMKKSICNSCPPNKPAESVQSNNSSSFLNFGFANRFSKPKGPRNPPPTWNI

[4] = biological target: T1, Tyrosine-protein phosphatase non-receptor type 22; assay: inhibition of lymphoid tyrosine phosphatase LYP – biochemical, pCAP fluorogenic substrate, fluorescence, set 3, SAR follow-up (AID 449727); assay type: functional
Protein Rev = Protein Rev (Human immunodeficiency virus type 1 group M subtype B (isolate HXB2)(HIV-1), UniProt P04618); assay: blockers of HIV Rev/RRE RNA complex – biochemical, fluorescence polarization, HIV-1, dose response (AID 434976); parameters: species or system Human immunodeficiency virus 1
Protein Rev, sequence (P04618 whole entry): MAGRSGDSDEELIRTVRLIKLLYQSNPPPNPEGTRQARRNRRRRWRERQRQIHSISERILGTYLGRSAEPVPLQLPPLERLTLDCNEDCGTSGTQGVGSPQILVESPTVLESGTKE

[5] = biological target: Female germline-specific tumor suppressor gld-1 (Caenorhabditis elegans, UniProt Q17339); assay: blockers of GLD-1/TGE RNA complex formation – biochemical, fluorescence polarization, C. elegans, dose response (AID 2802);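 also: fluorescence polarization of labeled TGE RNA bound by purified gld-1 protein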
Female germline-specific tumor suppressor gld-1, sequence (Q17339 whole entry): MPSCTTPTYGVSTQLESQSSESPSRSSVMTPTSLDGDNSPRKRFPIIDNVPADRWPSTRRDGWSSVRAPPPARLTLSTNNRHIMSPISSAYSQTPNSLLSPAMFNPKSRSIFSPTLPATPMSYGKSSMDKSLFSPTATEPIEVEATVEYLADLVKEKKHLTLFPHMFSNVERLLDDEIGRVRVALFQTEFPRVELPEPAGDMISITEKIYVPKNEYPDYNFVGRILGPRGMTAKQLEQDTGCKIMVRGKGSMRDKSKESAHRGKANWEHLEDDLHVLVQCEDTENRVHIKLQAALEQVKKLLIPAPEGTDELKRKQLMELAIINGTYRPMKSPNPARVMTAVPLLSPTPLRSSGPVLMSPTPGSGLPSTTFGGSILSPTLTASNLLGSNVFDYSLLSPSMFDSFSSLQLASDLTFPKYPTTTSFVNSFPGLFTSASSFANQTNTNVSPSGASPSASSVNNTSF

Insulin-degrading enzyme [6] = biological target: T2, Insulin-degrading enzyme (Homo sapiens, UniProt P14735); assay: recombinant IDE activation, cell-free – biochemical, fluorescence polarization, counter-screen for IDE activator project, dose response (AID 588681)
T2 sequence (P14735 whole entry): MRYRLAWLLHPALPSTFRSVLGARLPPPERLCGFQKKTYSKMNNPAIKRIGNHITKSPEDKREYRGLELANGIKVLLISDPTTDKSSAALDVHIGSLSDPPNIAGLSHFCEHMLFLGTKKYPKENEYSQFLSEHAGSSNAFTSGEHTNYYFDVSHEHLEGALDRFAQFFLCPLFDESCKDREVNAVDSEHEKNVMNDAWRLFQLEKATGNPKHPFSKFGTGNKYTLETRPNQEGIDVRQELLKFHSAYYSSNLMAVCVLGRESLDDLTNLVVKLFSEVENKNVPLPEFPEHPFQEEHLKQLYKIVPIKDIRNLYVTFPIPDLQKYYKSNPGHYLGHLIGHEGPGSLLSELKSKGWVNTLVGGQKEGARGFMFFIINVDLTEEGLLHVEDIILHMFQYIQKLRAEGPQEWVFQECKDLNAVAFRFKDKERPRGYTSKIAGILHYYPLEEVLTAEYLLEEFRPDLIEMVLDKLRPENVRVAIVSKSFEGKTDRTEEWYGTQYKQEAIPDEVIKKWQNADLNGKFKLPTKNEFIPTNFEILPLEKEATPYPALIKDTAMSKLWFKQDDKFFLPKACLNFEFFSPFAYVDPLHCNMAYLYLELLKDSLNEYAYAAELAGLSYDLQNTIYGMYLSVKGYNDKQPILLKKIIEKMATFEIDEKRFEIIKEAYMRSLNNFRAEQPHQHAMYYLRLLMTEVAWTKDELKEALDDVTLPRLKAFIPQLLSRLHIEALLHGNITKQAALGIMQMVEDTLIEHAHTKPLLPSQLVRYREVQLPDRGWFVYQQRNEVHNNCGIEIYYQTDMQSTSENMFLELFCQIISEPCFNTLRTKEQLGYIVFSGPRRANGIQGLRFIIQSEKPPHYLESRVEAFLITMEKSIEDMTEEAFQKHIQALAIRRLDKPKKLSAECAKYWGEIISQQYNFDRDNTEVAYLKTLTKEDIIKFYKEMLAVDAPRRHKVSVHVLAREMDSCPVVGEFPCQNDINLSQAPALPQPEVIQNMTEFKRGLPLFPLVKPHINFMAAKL

Insulin-degrading enzyme [7] = biological target: T2, Insulin-degrading enzyme; assay: cellular IDE activation of Abeta substrate cleavage – fluorescence polarization, HEK cells, dose response (AID 588439); assay type: functional, cell-based
HEK293 [8] = assay: membrane integrity loss in HEK cells – cell-based, fluorescence, cytotoxicity control for IDE activator project, dose response (AID 588440); assay type: functional; details: Homo sapiens;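 also: cytotoxicity by LDH release measuring loss of membrane integrity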
HEK293 [9] = assay: optical interference in Abeta FP readout, dose response, artefact control for IDE activator project, biochemical, fluorescence polarization (AID 588442); assay type: functional, cell-based; details: Homo sapiens
[10] = HEK-293T cell viability reduction – luminescence, B-cell screen hits, cytotoxicity control for BCR NF-kB inhibitor project, dose response (AID 489021); assay type: functional, cell-based;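 also: HEK-293T cells carrying an NF-kB luciferase reporter; cells exposed to compound for about 14 hours before viability readout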
[11] = viability of PTEN-deleted HCT116 cells – cell-based, HCT116 PTEN knockout, dose response (AID 1047); assay type: functional;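 also: HCT116 colon tumor cells with PTEN knocked out; cells exposed to compound for 60 hours before readout; potency for loss of cell viability measured by luminescence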
[12] = viability of HCT116 lacking mutant beta-catenin – cell-based, human colon tumor, dose response (AID 1045); assay type: functional;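 also: HCT116 colon tumor cells with beta catenin knocked out; cells exposed to compound for 60 hours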
[13] = biological target: Neurotensin receptor type 1 (Homo sapiens, UniProt P30989); assay type: functional;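 also: Image-based confirmatory dose-response assay measuring agonist activity at NTR1; NTR1-expressing U2OS osteosarcoma cells imaged for beta-arrestin GFP spot formation; agonist potency where compounds increase beta-arrestin recruitment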
Neurotensin receptor type 1, sequence (P30989 whole entry): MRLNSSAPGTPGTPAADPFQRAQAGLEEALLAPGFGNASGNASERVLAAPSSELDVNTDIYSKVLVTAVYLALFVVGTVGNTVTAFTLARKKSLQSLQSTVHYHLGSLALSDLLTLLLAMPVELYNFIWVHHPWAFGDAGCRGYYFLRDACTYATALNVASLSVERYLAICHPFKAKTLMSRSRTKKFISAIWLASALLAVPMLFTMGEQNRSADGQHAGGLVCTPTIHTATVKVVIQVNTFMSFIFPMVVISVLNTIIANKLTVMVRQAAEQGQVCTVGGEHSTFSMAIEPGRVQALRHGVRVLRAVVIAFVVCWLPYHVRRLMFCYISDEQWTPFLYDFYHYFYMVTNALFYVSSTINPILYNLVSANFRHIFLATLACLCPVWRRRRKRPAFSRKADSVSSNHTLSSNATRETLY

X-box-binding protein 1 = X-box-binding protein 1 (Homo sapiens, UniProt P17861); assay type: functional, Cricetulus griseus;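 also: confirmatory dose-response counter-screen serving a CHOP assay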
X-box-binding protein 1, sequence (P17861 whole entry): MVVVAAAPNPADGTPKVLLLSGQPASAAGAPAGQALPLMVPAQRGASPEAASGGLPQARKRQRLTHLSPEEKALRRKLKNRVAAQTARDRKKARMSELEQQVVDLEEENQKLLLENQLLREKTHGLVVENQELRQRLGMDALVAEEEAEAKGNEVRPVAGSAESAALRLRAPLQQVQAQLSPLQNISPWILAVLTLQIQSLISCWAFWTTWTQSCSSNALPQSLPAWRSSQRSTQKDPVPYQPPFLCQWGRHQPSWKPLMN

[14] = viability of uninfected HEp-2 cells – cell-based, HTS, cytotoxicity control for RSV inhibitor project, dose response (AID 2410); assay type: functional; details: human respiratory syncytial virus
Trypsin = Trypsin (Sus scrofa, UniProt P00761); assay: trypsin protease activity blockade – biochemical, quenched peptide fluorescence, cherry-pick, selectivity assay for Rce1 protease inhibitor project, dose response (AID 488789)
Trypsin, sequence (P00761 whole entry): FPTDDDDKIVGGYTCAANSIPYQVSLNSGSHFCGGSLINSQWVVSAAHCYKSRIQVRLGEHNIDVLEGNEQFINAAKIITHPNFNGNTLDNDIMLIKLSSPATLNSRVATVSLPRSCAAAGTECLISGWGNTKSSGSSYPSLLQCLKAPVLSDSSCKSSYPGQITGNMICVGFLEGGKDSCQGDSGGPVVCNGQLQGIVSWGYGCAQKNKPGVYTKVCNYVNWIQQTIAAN

cells [15] = assay type: functional, cell-based
[16] = biological target: T3, Trace amine-associated receptor 1 (Homo sapiens, UniProt Q96RJ0); assay: Fluorescence-based cell-based high throughput dose response assay to identify agonists of the human trace amine associated receptor 1 (TAAR1).; assay type: functional
T3 sequence (Q96RJ0 whole entry): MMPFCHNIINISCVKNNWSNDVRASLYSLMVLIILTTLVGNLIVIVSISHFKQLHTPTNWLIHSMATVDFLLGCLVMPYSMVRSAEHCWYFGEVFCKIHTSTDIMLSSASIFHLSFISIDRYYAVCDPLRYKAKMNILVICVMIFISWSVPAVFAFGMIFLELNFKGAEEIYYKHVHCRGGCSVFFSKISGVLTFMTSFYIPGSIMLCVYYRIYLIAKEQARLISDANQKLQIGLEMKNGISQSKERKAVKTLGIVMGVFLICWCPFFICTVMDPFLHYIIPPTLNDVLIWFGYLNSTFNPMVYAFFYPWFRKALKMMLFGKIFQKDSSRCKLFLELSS

[17] = biological target: T3, Trace amine-associated receptor 1; assay: Counterscreen for agonists of the human trace amine associated receptor 1 (hTAAR1): Fluorescence-based cell-based high throughput dose response assay to identify hTAAR1 agonist that also desensitize TAAR1 receptor response.; assay type: functional
cells [18] = assay type: functional, cell-based; remark: listed apart in the source
[19] = biological target: Melanin-concentrating hormone receptor 1 (Homo sapiens, UniProt Q99705); assay: Late-stage fluorescence-based counterscreen for antagonists of the G-protein coupled receptor 7 (GPR7): cell-based dose response assay to identify antagonists of the melanin-concentrating hormone receptor 1 (MCHR1). [Related pubchem assays (depositor defined):AID1861, AID1880, AID1952, AID2148, AID2251, AID2257, AID485339]; assay type: functional;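 also: stimulated with 30 nM MCH peptide agonist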
Melanin-concentrating hormone receptor 1, sequence (Q99705 whole entry): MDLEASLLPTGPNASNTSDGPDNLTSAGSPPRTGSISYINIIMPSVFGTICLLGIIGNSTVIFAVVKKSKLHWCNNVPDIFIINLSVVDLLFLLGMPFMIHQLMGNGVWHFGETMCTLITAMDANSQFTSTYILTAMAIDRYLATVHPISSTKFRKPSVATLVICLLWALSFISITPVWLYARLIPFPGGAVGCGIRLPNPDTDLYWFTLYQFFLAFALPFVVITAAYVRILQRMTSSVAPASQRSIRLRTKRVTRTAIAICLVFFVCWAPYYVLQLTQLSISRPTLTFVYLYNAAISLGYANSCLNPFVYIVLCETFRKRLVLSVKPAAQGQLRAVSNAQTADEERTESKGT

[20] = biological target: T4, Neuropeptides B/W receptor type 1 (Homo sapiens, UniProt P48145); assay: human NPBW1 receptor blockade, IC50 – cell-based, fluorescence, dose response, late-stage follow-up (AID 463251); assay type: functional
T4 sequence (P48145 whole entry): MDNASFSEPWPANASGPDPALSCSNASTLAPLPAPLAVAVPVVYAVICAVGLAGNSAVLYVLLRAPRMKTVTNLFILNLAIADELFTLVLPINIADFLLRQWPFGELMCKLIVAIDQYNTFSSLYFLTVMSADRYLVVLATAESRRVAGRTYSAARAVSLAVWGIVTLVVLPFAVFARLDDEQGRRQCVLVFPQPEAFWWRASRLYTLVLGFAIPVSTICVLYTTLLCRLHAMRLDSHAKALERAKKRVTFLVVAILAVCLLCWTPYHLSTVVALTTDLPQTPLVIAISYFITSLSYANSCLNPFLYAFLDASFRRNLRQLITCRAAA

Wee1-like protein kinase = Wee1-like protein kinase (Homo sapiens, UniProt P30291); assay: HeLa cell cycle G2/M accumulation – FACS, mechanism study for Wee1 degradation inhibitor project, late-stage follow-up, panel member Wee1 Degradation (AID 2088)
Wee1-like protein kinase, sequence (P30291 whole entry): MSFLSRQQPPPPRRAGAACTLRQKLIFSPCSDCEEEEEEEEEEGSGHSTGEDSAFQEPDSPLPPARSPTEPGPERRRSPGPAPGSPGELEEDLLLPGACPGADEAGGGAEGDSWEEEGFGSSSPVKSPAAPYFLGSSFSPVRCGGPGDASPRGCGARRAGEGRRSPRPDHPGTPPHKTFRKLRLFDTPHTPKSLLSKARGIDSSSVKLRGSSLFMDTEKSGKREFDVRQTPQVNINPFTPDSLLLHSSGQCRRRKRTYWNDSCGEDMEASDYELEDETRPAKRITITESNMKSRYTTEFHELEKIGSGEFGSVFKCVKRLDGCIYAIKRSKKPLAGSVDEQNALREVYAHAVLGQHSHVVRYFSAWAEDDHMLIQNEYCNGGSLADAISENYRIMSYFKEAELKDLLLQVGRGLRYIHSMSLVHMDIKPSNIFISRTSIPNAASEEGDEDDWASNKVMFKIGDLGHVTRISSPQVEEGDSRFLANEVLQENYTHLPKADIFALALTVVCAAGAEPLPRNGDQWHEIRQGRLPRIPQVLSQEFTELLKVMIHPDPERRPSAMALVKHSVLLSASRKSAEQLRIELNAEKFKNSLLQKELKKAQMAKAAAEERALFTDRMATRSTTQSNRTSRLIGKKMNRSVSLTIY

[21] = biological target: G2/mitotic-specific cyclin-B1 (Homo sapiens, UniProt P14635); assay: HeLa cell cycle G2/M accumulation – FACS, mechanism study for Wee1 degradation inhibitor project, late-stage follow-up, panel member Cyclin B Degradation (AID 2088)
G2/mitotic-specific cyclin-B1, sequence (P14635 whole entry): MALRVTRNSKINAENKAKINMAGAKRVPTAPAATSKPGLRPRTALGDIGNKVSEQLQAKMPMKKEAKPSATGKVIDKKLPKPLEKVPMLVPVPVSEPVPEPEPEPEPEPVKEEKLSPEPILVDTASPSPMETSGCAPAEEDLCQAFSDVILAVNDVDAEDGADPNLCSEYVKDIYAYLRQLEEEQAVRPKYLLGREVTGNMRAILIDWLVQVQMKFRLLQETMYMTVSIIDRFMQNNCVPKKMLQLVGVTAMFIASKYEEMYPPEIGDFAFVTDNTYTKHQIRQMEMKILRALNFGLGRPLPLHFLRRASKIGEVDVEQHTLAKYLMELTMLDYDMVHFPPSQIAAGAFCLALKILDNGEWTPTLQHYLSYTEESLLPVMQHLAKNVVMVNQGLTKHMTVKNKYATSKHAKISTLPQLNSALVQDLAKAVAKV

[22] = biological target: Signal transducer and activator of transcription 3 (Homo sapiens, UniProt P40763); assay: STAT3 activation with BCL3 mRNA and toxicity – cell-based, […], BCL3 qPCR, cytotoxicity, late-stage follow-up, panel member STAT3 Activation (AID 2049)
Signal transducer and activator of transcription 3, sequence (P40763 whole entry): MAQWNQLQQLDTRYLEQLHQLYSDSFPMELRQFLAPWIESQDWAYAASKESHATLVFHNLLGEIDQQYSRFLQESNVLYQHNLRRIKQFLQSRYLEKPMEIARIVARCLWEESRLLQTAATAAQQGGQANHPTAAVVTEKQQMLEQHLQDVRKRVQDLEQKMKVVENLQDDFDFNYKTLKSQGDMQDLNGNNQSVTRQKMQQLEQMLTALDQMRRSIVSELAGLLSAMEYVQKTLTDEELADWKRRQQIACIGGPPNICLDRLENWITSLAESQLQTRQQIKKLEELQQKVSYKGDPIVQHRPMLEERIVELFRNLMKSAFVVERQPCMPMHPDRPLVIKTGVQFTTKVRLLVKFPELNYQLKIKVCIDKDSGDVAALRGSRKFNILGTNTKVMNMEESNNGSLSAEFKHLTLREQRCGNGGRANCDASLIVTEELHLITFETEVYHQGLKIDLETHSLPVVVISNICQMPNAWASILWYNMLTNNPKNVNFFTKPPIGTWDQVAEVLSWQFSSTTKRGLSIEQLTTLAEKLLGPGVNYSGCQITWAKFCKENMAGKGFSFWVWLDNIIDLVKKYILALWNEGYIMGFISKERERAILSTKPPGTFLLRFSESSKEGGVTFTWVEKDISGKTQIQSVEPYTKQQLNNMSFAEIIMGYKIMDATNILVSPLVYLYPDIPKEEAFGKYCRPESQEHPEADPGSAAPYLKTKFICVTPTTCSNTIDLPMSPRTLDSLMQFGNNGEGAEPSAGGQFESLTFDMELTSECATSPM

Glyceraldehyde-3-phosphate dehydrogenase, sequence (P04406 whole entry): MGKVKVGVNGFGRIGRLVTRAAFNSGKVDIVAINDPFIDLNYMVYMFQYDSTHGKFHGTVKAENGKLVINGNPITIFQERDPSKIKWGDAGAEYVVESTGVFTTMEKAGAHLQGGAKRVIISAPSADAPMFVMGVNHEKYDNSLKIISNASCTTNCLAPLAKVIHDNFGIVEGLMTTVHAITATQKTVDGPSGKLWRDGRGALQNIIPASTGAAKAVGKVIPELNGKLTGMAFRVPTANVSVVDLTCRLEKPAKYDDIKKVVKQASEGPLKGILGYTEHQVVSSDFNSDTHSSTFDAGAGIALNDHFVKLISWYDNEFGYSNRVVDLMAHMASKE

IC50 [1]: > 100 µM (not active)
IC50 [2]: > 100 µM (inactive)
IC50 [3]: > 100 µM (inactive)
IC50 [4]: > 100 µM (inactive)
Compound: COc1ccc(/C=C2\SC(=S)N(C(CC(=O)O)C(=O)O)C2=O)cc1 (stereo unspecified)

Compound: O=C(O)c1ccccc1N=Nc1ccc(O)cc1
IC50 (Protein Rev): 22 µM (not active)
IC50 [5]: 8.4 µM (active)
EC50 (Insulin-degrading enzyme [6]): 26.9 µM (inactive)
EC50 (Insulin-degrading enzyme [7]): 22.3 µM (inactive)
IC50 (HEK293 [8]): > 89.2 µM (inactive)
EC50 (HEK293 [9]): 50.3 µM (inactive)

Compound: CCN(CC)CCOC(=O)c1ccc(NC(=O)COc2cc(=O)n(CC)c3ccccc23)cc1
IC50 [10]: > 80 µM (inactive)

Compound: Cc1cc2c3c(c1)C(C)(c1ccccc1)CC(C)(C)N3C(=O)C21C(C#N)=C(N)OC2=C1C(=O)CC(C)(C)C2 (stereo unspecified)
EC50 [11]: 19.4 µM (active)
EC50 [12]: 20.4 µM (active)
EC50 [13]: 22 µM (inactive)
Absolute IC50 (XBP1) (X-box-binding protein 1): 10 µM

Compound: O=C(NCC1CC1)c1ccc(Nc2nc3cc(Br)ccc3[nH]2)cc1
CC50 [14]: 7.81 µM (active)
AC50 (Trypsin): 9.83 µM (active)
IC50 (cells [15]): 14.5 µM (inactive)
EC50 [16]: 14.6 µM (inactive)
IC50 [17]: 2.09 µM (active)
EC50 (cells [18]): > 29.9 µM (inactive)

IC50 [19]: 5.8 µM (active)
IC50 [20]: 9 µM (active)
Compound: Cc1ccc(CN2CCCCC2C(=O)N2CCN(c3ccc([N+](=O)[O-])cc3)CC2)cc1 (stereo unspecified)

EC50 (Wee1-like protein kinase): > 49.7 µM (inactive)
EC50 [21]: > 49.7 µM (inactive)
Compound: COC(=O)c1ccccc1NC(=O)CCCOc1cc(=O)n(C)c2ccccc12

Compound: COc1cccc(NC(=O)c2cc(C3CC3)on2)c1
EC50 [22]: > 5.57 µM (inactive)
